# Results as given in US6737383B1, “Herbicidal oxadiazolidines” (priority 1999, dated 2004).
# What was measured:
# blackgrass = assay: Test B pre/postemergence blackgrass; format: in vivo, Alopecurus myosuroides
# How it was run: (§1)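 Test chemicals in a non-phytotoxic solvent mixture with surfactant were sprayed preemergence onto planted seeds and postemergence onto plants 2 to 18 cm tall (1- to 4-leaf stage). After twelve to sixteen days in a greenhouse, injury was visually rated against untreated controls from 0 (no effect) to 10 (complete control).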
# bedstraw = assay: Test B pre/postemergence bedstraw; format: in vivo, Galium aparine
# How it was run: as §1
# duck salad = assay: Test B flood test duck salad; format: in vivo, Heteranthera limosa
# How it was run: (§2)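 Plants were grown to the 2-leaf stage before treatment with test chemical, then held in a greenhouse for twelve to sixteen days. Injury was visually rated against untreated controls on a 0–10 scale, where 0 is no effect and 10 is complete control.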
# purple nutsedge = assay: Test B pre/postemergence purple nutsedge; format: in vivo, Cyperus rotundus
# How it was run: as §1
# bamyardgrass = assay: Test B flood test barnyardgrass; format: in vivo, Echinochloa crus-galli
# How it was run: as §2
# pigweed = assay: Test B pre/postemergence pigweed; format: in vivo, Amaranthus retroflexus
# How it was run: as §1
# soybean = assay: Test B pre/postemergence soybean; format: in vivo, Glycine max
# How it was run: as §1
# surinam grass = assay: Test B pre/postemergence surinam grass; format: in vivo, Brachiaria decumbens
# How it was run: as §1
# velvetleaf = assay: Test B pre/postemergence velvetleaf; format: in vivo, Abutilon theophrasti
# How it was run: as §1
# corn = assay: Test B pre/postemergence corn; format: in vivo, Zea mays
# How it was run: as §1
# rice = assay: Test B flood test rice; format: in vivo, Oryza sativa
# How it was run: as §2
# morningglory = assay: Test B pre/postemergence morningglory; format: in vivo, Ipomoea hederacea
# How it was run: as §1
# sugar beet = assay: Test B pre/postemergence sugar beet; format: in vivo, Beta vulgaris
# How it was run: as §1
# giant foxtail = assay: Test B pre/postemergence giant foxtail; format: in vivo, Setaria faberii
# How it was run: as §1
# smallflower flatsedge = assay: Test B flood test smallflower flatsedge; format: in vivo, Cyperus difformis
# How it was run: as §2
# rape = assay: Test B pre/postemergence rape; format: in vivo, Brassica napus
# How it was run: as §1
# [1] = Preemergence, Rate 62 g/ha, scale of 0 to 10 where 0 is no effect and 10 is complete control
# [2] = Preemergence, Rate 250 g/ha, scale of 0 to 10 where 0 is no effect and 10 is complete control
# [3] = Preemergence, Rate 500 g/ha, scale of 0 to 10 where 0 is no effect and 10 is complete control
# [4] = Rate 62 g/ha, Postemergence, scale of 0 to 10 where 0 is no effect and 10 is complete control
# [5] = Rate 125 g/ha, Postemergence, scale 0 to 10
# [6] = Rate 125 g/ha, Preemergence, scale of 0 to 10 where 0 is no effect and 10 is complete control
# [7] = Rate 500 g/ha, Postemergence, scale 0 to 10, 0 no effect, 10 complete control
# [8] = Rate 62 g/ha, headed Pre-emergence (flood test species), scale 0 to 10 (0 no effect, 10 complete control)
# [9] = Rate 125 g/ha, Pre-emergence, flood test species, scale 0 to 10 where 0 is no effect and 10 is complete control
# [10] = Rate 250 g/ha, Pre-emergence, flood-test species, scale 0 to 10, 0 is no effect, 10 is complete control
# [11] = Rate 500 g/ha, Pre-emergence, flood test species, scale 0 to 10 (0 no effect, 10 complete control)
compound,measurement,setting,value
CC(C)N(C(=O)n1oc(=O)n(C2CC2)c1=O)c1ccccc1 [Compound 243],Blackgrass plant response rating,blackgrass; [1],8
same,Blackgrass plant response rating,blackgrass; [2],10
same,"Plant response rating, Blackgrass",blackgrass; [3],10
same,Blackgrass plant response rating,blackgrass; [4],7
same,Blackgrass plant response rating,blackgrass; [5],8
same,Blackgrass plant response rating,blackgrass; [6],10
same,"Plant response rating (0 to 10; 0 is no effect, 10 is complete control), Blackgrass","blackgrass; Rate 250 g/ha, Postemergence",9
same,Blackgrass plant response rating,blackgrass; [7],9
same,Bedstraw plant response rating,bedstraw; [1],0
same,Bedstraw plant response rating,bedstraw; [2],5
same,"Plant response rating, Bedstraw",bedstraw; [3],9
same,Bedstraw plant response rating,bedstraw; [4],0
same,Bedstraw plant response rating,bedstraw; [5],4
same,Bedstraw plant response rating,bedstraw; [6],0
same,"Plant response rating (0 to 10; 0 is no effect, 10 is complete control), Bedstraw","bedstraw; Rate 250 g/ha, Postemergence",5
same,Bedstraw plant response rating,bedstraw; [7],5
same,Ducksalad plant response rating,duck salad; [8],0
same,Ducksalad plant response rating,duck salad; [9],0
same,Ducksalad plant response rating,duck salad; [10],0
same,Ducksalad plant response rating,duck salad; [11],0
same,Nutsedge plant response rating,purple nutsedge; [1],0
same,Nutsedge plant response rating,purple nutsedge; [2],0
same,Nutsedge plant response rating,purple nutsedge; [4],0
same,Nutsedge plant response rating,purple nutsedge; [6],0
same,Nutsedge plant response rating,purple nutsedge; [7],7
same,Barnyardgrass plant response rating,bamyardgrass; [8],0
same,Barnyardgrass plant response rating,bamyardgrass; [9],0
same,Barnyardgrass plant response rating,bamyardgrass; [10],0
same,Barnyardgrass plant response rating,bamyardgrass; [11],0
same,Redroot pigweed plant response rating,pigweed; [1],6
same,Redroot pigweed plant response rating,pigweed; [2],10
same,"Plant response rating, Redroot pigweed",pigweed; [3],10
same,Redroot pigweed plant response rating,pigweed; [4],2
same,Redroot pigweed plant response rating,pigweed; [6],9
same,"Plant response rating (0 to 10; 0 is no effect, 10 is complete control), Redroot pigweed","pigweed; Rate 250 g/ha, Postemergence",7
same,Redroot pigweed plant response rating,pigweed; [7],7
same,Soybean plant response rating,soybean; [1],0
same,Soybean plant response rating,soybean; [2],8
same,"Plant response rating, Soybean",soybean; [3],9
same,Soybean plant response rating,soybean; [4],3
same,Soybean plant response rating,soybean; [6],0
same,Soybean plant response rating,soybean; [7],8
same,B. signalgrass plant response rating,surinam grass; [1],4
same,B. signalgrass plant response rating,surinam grass; [2],7
same,"Plant response rating, B. signalgrass",surinam grass; [3],10
same,B. signalgrass plant response rating,surinam grass; [4],0
same,B. signalgrass plant response rating,"surinam grass; Rate 125 g/ha, Postemergence, scale 0 (no effect) to 10 (complete control)",4
same,B. signalgrass plant response rating,surinam grass; [6],5
same,"Plant response rating (0 to 10; 0 is no effect, 10 is complete control), B. signalgrass","surinam grass; Rate 250 g/ha, Postemergence",9
same,B. signalgrass plant response rating,surinam grass; [7],9
same,Velvetleaf plant response rating,velvetleaf; [1],4
same,Velvetleaf plant response rating,velvetleaf; [2],10
same,"Plant response rating, Velvetleaf",velvetleaf; [3],10
same,Velvetleaf plant response rating,velvetleaf; [4],0
same,Velvetleaf plant response rating,velvetleaf; [6],6
same,Velvetleaf plant response rating,velvetleaf; [7],7
same,Corn plant response rating,corn; [1],2
same,Corn plant response rating,corn; [2],6
same,"Plant response rating, Corn",corn; [3],9
same,Corn plant response rating,corn; [4],0
same,Corn plant response rating,corn; [5],2
same,Corn plant response rating,corn; [6],3
same,"Plant response rating (0 to 10; 0 is no effect, 10 is complete control), Corn","corn; Rate 250 g/ha, Postemergence",5
same,Corn plant response rating,corn; [7],7
same,Rice plant response rating,rice; [8],0
same,Rice plant response rating,rice; [9],0
same,Rice plant response rating,rice; [10],0
same,Rice plant response rating,rice; [11],0
same,Morningglory plant response rating,morningglory; [1],2
same,Morningglory plant response rating,morningglory; [2],8
same,"Plant response rating, Morningglory",morningglory; [3],10
same,Morningglory plant response rating,morningglory; [4],5
same,Morningglory plant response rating,morningglory; [6],3
same,"Plant response rating (0 to 10; 0 is no effect, 10 is complete control), Morningglory","morningglory; Rate 250 g/ha, Postemergence",7
same,Morningglory plant response rating,morningglory; [7],8
same,Sugarbeets plant response rating,sugar beet; [1],2
same,Sugarbeets plant response rating,sugar beet; [2],7
same,"Plant response rating, Sugarbeets",sugar beet; [3],10
same,Sugarbeets plant response rating,sugar beet; [4],0
same,Sugarbeets plant response rating,sugar beet; [6],3
same,Sugarbeets plant response rating,sugar beet; [7],5
same,Giant foxtail plant response rating,giant foxtail; [1],10
same,Giant foxtail plant response rating,giant foxtail; [2],10
same,"Plant response rating, Giant foxtail",giant foxtail; [3],10
same,Giant foxtail plant response rating,giant foxtail; [4],3
same,Giant foxtail plant response rating,giant foxtail; [6],10
same,"Plant response rating (0 to 10; 0 is no effect, 10 is complete control), Giant foxtail","giant foxtail; Rate 250 g/ha, Postemergence",8
same,Giant foxtail plant response rating,giant foxtail; [7],8
same,S. Flatsedge plant response rating,smallflower flatsedge; [8],0
same,S. Flatsedge plant response rating,smallflower flatsedge; [9],0
same,S. Flatsedge plant response rating,smallflower flatsedge; [10],0
same,S. Flatsedge plant response rating,smallflower flatsedge; [11],0
same,Rape plant response rating,rape; [1],0
same,Rape plant response rating,rape; [2],9
same,"Plant response rating, Rape",rape; [3],10
same,Rape plant response rating,rape; [4],0
same,Rape plant response rating,rape; [6],5
same,"Plant response rating (0 to 10; 0 is no effect, 10 is complete control), Rape","rape; Rate 250 g/ha, Postemergence",2
same,Rape plant response rating,rape; [7],3
